The data set relates to HEK293 1C8 cells. The data set can be described thus: MTT cytotoxicity assay. The format is cell-based, human. As to conditions: varying concentrations up to 40 μM, 3 h 45 min. The protocol:
Cells were washed two times with PBS and incubated with 3-(4,5-dimethylthiazol-2-yl)-2,5-diphenyltetrazolium bromide (MTT) during 3 h, at 37° C. Afterwards, cells were washed once with PBS and then incubated for 10 min with DMSO. Plates were analysed with a Tecan Spark 10 M microplate reader.
An MTT assay was used to assess the cytotoxicity of the non-fluorescent Gq/11 peptidomimetics of Example 5. An MTT assay is a colorimetric test that evaluates the cell metabolic activity and reflects the cell viability.

Positions of bridges follow the written chain, without caps; N, C: chain ends. Non-standard residues stand in square brackets, D forms with d. Residues, ends and D or L forms follow the SMILES beside them. Triazole bridges read from a SMILES are 1,4-linked. Lys(N3) = [N-]=[N+]=NCCCC[C@H](N)C(=O)O; Pra = C#CC[C@H](N)C(=O)O

In the case of `CC[C@H](C)[C@H](NC(=O)[C@@H]1CCCCn2cc(nn2)C[C@H](NC(=O)[C@H](C)NC(=O)[C@H](Cc2ccccc2)NC(=O)[C@H](CCCCN)NC(=O)[C@H](CCCCN)NC(=O)[C@@H](N)CCCCN)C(=O)N[C@@H](C(C)C)C(=O)N[C@@H](CCCCN)C(=O)N[C@@H](CC(=O)O)C(=O)N1)C(=O)N[C@@H](CC(C)C)C(=O)N[C@@H](CCC(N)=O)C(=O)N[C@@H](CC(C)C)C(=O)N[C@@H](CC(N)=O)C(=O)N[C@@H](CC(C)C)C(=O)N[C@@H](CCCCN)C(=O)N[C@@H](CCC(=O)O)C(=O)N[C@@H](Cc1ccc(O)cc1)C(=O)N[C@@H](CC(N)=O)C(=O)N[C@@H](CC(C)C)C(=O)N[C@H](C(=O)O)C(C)C` [SBL-GQ-13] (H-KKKFA[Pra]VKD[Lys(N3)]ILQLNLKEYNLV-OH; triazole 6-10), the “cytotoxicity / viability” value was “No cytotoxicity”.

In the case of `CC[C@H](C)[C@H](NC(=O)[C@@H]1CCCCn2cc(nn2)C[C@H](NC(=O)[C@H](C)NC(=O)[C@H](Cc2ccccc2)NC(=O)[C@H](CCCNC(=N)N)NC(=O)[C@H](CCCNC(=N)N)NC(=O)[C@H](CCCNC(=N)N)NC(=O)[C@@H](N)CCCNC(=N)N)C(=O)N[C@@H](C(C)C)C(=O)N[C@@H](CCCCN)C(=O)N[C@@H](CC(=O)O)C(=O)N1)C(=O)N[C@@H](CC(C)C)C(=O)N[C@@H](CCC(N)=O)C(=O)N[C@@H](CC(C)C)C(=O)N[C@@H](CC(N)=O)C(=O)N[C@@H](CC(C)C)C(=O)N[C@@H](CCCCN)C(=O)N[C@@H](CCC(=O)O)C(=O)N[C@@H](Cc1ccc(O)cc1)C(=O)N[C@@H](CC(N)=O)C(=O)N[C@@H](CC(C)C)C(=O)N[C@H](C(=O)O)C(C)C` [SBL-GQ-14] (H-RRRRFA[Pra]VKD[Lys(N3)]ILQLNLKEYNLV-OH; triazole 7-11), the “cytotoxicity / viability” value is “only a slight decrease in viability”.
